In this test the target is T1, YhOCT3 (Homo sapiens, UniProt O75751).
T1 construct: expressed in transfected cells
T1 sequence (O75751 1-556): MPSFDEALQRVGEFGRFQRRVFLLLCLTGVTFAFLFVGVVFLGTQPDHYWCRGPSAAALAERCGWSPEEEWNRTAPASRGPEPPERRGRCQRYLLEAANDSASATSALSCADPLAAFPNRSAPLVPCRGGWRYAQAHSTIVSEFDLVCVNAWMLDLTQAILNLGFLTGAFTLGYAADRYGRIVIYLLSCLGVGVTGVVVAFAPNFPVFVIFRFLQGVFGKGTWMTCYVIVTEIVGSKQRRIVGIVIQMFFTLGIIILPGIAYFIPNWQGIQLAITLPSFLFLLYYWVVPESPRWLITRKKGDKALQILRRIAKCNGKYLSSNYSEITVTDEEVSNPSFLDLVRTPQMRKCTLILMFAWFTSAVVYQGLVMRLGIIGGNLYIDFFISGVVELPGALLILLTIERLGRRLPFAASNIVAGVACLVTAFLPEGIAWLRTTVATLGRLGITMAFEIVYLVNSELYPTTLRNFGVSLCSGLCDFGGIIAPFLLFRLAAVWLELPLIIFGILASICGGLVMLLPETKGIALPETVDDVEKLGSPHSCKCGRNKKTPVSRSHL
The test can be described thus: radioligand uptake inhibition assay ([3H]MPP+). As to conditions: for IC50: HEK293 stably expressing YhOCT3, 50 nM [3H]MPP+, mean and SD, N = 3-6, read-out: IC50, uptake inhibition at OCT3 (YhOCT3); for Hill coefficient nH at OCT3: uptake inhibition curve. In kind it is cell-based. The method, then: 1. Biological characterization
1.1. Experimental methods
Buffer and solution compositions (in mM) are as follows:
Krebs-HEPES buffer (KHB): 120 NaCl, 3 KCl, 2 CaCl2, 2 MgCl2, 20 glucose, 10 HEPES NaOH, pH = 7.3 – 7.4. […]
10 mM glucose, 1.25 mM NaH2PO4, pH = 7.4 (oxygenated with 95% O2, 5% CO2).
Human embryonic kidney 293 cells (HEK293) stably expressing the mCherry-tagged, YFP-tagged, and GFP-tagged human isoforms of SERT (mCherry-SERT, YhSERT, GhSERT), DAT (YhDAT), NET (hNET), and OCT3 (YhOCT3) were cultured in Dulbecco's modified Eagle's medium (DMEM) with high glucose (4.5 g/L) and l-glutamine (584 mg/L), supplemented with 10% fetal calf serum (FCS), 100 units/mL penicillin and 100 µg/mL streptomycin. The cells were cultured in a humidified atmosphere (37 °C, 5% CO2). Geneticin (50 µg/mL), Blasticidin (6 µg/mL), and Zeocin® (150 µg/mL) were added to maintain the selection pressure for the stable cell lines. Cells were typically seeded 24 hours prior to the experiments.
For uptake inhibition experiments, cells were seeded at 3.6 x 10^4 cells/0.2 mL into 96-well plates coated […]
with poly-d-lysine (PDL). […]
For uptake inhibition experiments, the cell medium was aspirated and the cells were washed once with 0.2 mL/well KHB at room temperature. The cells were pre-incubated with increasing concentrations of the substance of interest, diluted in KHB (0.05 mL/well). The pre-incubation solution was replaced with 0.05 mL/well KHB solution still containing the substance of interest and additionally the tritiated substrate (100 nM [3H]DA for YhDAT; 100 nM [3H]5HT for YhSERT; 20 nM and 50 nM [3H]MPP+ for hNET and YhOCT3), after 6 minutes (YhSERT), 5 minutes (YhDAT, hNET), or 10 minutes (YhOCT3). Substrate uptake was stopped after one minute (for [3H]DA and [3H]5HT), three minutes, or […]
The KHB was aspirated immediately. […] Non-specific uptake was determined in the presence of 30 µM paroxetine (for YhSERT), 50 µM GBR12909 (for YhDAT and hNET), or 100 µM decynium-22 (for YhOCT3). […]
[3H]-imipramine, and increasing concentrations of test compound, for 60 min at 20 – 22 °C. […] The amount of radioactivity in the filters was measured using a Tri-Carb 2800TR liquid scintillation analyzer (PerkinElmer). The Ki was calculated from the measured IC50 using the Cheng-Prusoff equation.
Prior to imaging, cell culture medium was replaced with pre-warmed KHB. […] PyrAtes were excited using a 405 nm laser, and its fluorescent signals collected using 525/50 nm emission filters; mCherry was excited using a 561 nm laser, and fluorescence was collected using 595/50 nm emission filters. […]
5HT-mediated currents were measured at room temperature (20-25°C) using whole-cell patch clamp in HEK293 cells stably expressing SERT. […]

The values below come from paper PMC11891579, “Fluorescent PyrAte-(S)-citalopram conjugates enable imaging of the serotonin transporter in living tissue” (Chemical Science, 2025).

For the compound `CCN(CC)c1ccc(-c2cc[n+]3c(-c4ccccc4)c(N4CCCC4)n(CCCCCCC(=O)NCc4ccc5c(c4)CO[C@@]5(CCCN(C)C)c4ccc(F)cc4)c3c2)cc1` [PYR-C6-CIT, PyrAte-C6-(S)-citalopram], the IC50 stood at 2100 nM and the “Hill coefficient nH at OCT3” value is −2.3.
For the compound `CCN(CC)c1ccc(-c2cc[n+]3c(-c4ccccc4)c(N4CCCC4)n(CCCC(=O)NCc4ccc5c(c4)CO[C@@]5(CCCN(C)C)c4ccc(F)cc4)c3c2)cc1` [PYR-C3-CIT, PyrAte-C3-(S)-citalopram], the IC50 worked out at 3320 nM and the “Hill coefficient nH at OCT3” value is reported as −2.1.
